Test results from patent publication US20260001871A1, “TRIAZOLE DERIVATIVES AS MODULATORS OF MAS-RELATED G-PROTEIN RECEPTOR D” (ESCIENT PHARMACEUTICALS, INC., priority 2022, published 2026).

Molecular target: human MRGPRD (Homo sapiens, UniProt Q8TDS7)
Experiment: MRGPRD antagonist activity, IP-One HTRF assay in CHO cells stably expressing human MRGPRD (versus 100 μM β-Alanine agonist)
Assay type: cell-based
Outline: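 CHO cells stably expressing human MRGPRD, plated overnight at 37 °C, were treated with antagonist plus agonist in Tris-HCl/NaCl/LiCl buffer pH 8, incubated 1 h at 37 °C then 1 h at room temperature. IP-1 accumulation read by HTRF; IC50 and percent antagonism of maximum efficacy averaged, SEM reported.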

Chain of human MRGPRD (Q8TDS7 whole entry): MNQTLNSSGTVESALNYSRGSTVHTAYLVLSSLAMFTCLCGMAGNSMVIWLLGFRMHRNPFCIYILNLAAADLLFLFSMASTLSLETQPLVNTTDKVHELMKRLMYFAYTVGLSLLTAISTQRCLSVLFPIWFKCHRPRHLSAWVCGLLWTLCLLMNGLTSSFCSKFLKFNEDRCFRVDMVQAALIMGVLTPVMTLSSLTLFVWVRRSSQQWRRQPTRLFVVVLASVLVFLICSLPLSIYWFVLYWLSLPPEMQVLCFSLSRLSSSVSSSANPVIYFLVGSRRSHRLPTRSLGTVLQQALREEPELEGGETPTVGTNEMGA

Compound | IC50
Cc1nn2cccnc2c1-c1ccc(-n2nnc(C(=O)NC3(c4cncc(Cl)c4)CC3)c2C2CC2)cc1 [Compound 10-2] | > 3000 nM
Cc1cc(NC(=O)c2nnn(-c3ccc(-c4c(C)nn5cccnc45)cc3)c2C2CC2)ccn1 [Compound 10-3] | < 100 nM
CCc1cc(NC(=O)c2nnn(-c3ccc(-c4c(C)nn5cccnc45)cc3)c2C2CC2)ccn1 [Compound 10-4] | 100 to 500 nM
Cc1ccc(CNC(=O)c2nnn(-c3ccc(-c4c(C)nn5cccnc45)cc3)c2C2CC2)cn1 [Compound 10-5] | 100 to 500 nM
CCn1cc(CNC(=O)c2nnn(-c3ccc(-c4c(C)nn5cccnc45)cc3)c2C2CC2)cn1 [Compound 10-6] | 100 to 500 nM
Cc1nn2cccnc2c1-c1ccc(-n2nnc(C(=O)Nc3ccc(NS(C)(=O)=O)cc3)c2C2CC2)cc1 [Compound 10-7] | 1000 to 3000 nM
CCc1ccc(C2(NC(=O)c3nnn(-c4ccc(-c5c(C)nn6cccnc56)cc4)c3C3CC3)CC2)cn1 [Compound 10-8] | 1000 to 3000 nM
CCn1cc(CNC(=O)c2nnn(-c3ccc(-c4c(C)nn(-c5ccccc5)c4C)cc3)c2C2CC2)cn1 [Compound 10-9] | < 100 nM
Cc1cc(NC(=O)c2nnn(-c3ccc(-c4c(C)nn(C)c4C)cc3)c2C(C)C)ccn1 [Compound 10-10] | < 100 nM
CCn1cc(CNC(=O)c2nnn(-c3ccc(-c4c(C)nn5ccccc45)cc3)c2C(C)C)cn1 [Compound 10-11] | < 100 nM
Cc1cc(NC(=O)c2nnn(-c3ccc(-c4c(C)nn5ccccc45)cc3)c2C(C)C)ccn1 [Compound 10-12] | 100 to 500 nM
Cc1nn(C)c(C)c1-c1ccc(-n2nnc(C(=O)Nc3ccncc3)c2C2CC2)nc1 [Compound 11-1, 5-cyclopropyl-N-(pyridin-4-yl)-1-(5-(1,3,5-trimethyl-1H-pyrazol-4-yl)pyridin-2-yl)-1H-1,2,3-triazole-4-carboxamide] | 100 to 500 nM
Cc1cc(NC(=O)c2nnn(-c3ccc(-c4ccc(C#N)cc4)cn3)c2C2CC2)ccn1 [Compound 11-2] | 100 to 500 nM
Cc1cc(NC(=O)c2nnn(C3CC=C(c4c(C)nn(C)c4C)CC3)c2C2CC2)ccn1 (centres unmarked) [Compound 12-1, 5-cyclopropyl-N-(2-methylpyridin-4-yl)-1-(4-(1,3,5-trimethyl-1H-pyrazol-4-yl)cyclohex-3-en-1-yl)-1H-1,2,3-triazole-4-carboxamide] | 100 to 500 nM
Cc1n[nH]c2ncnc(NC(=O)c3nnn(C4CC=C(c5ccc(C#N)cc5)CC4)c3C3CC3)c12 (centres unmarked) [Compound 12-2] | 100 to 500 nM
Cc1cc(NC(=O)c2nnn(C3CC=C(c4c(C)nn(-c5ccccc5)c4C)CC3)c2C2CC2)ccn1 (centres unmarked) [Compound 12-3] | 500 to 1000 nM
Cc1cc(NC(=O)c2nnn(C3CC=C(c4ccc(F)cc4)CC3)c2C2CC2)ccn1 (centres unmarked) [Compound 12-4] | 500 to 1000 nM
Cc1cc(NC(=O)c2nnn(C3CC=C(c4c(C)nn5ccccc45)CC3)c2C2CC2)ccn1 (centres unmarked) [Compound 12-5] | 500 to 1000 nM
Cn1cc(C2(NC(=O)c3nnn(C4CC=C(c5ccc(C#N)cc5)CC4)c3C3CC3)CC2)cn1 (centres unmarked) [Compound 12-6] | 1000 to 3000 nM
Cc1cc(NC(=O)c2nnn(C3CC=C(c4ccc(CC#N)cc4)CC3)c2C2CC2)ccn1 (centres unmarked) [Compound 12-7] | 1000 to 3000 nM
CCn1cc(CNC(=O)c2nnn(C3CC=C(c4ccc(C#N)cc4)CC3)c2C2CC2)cn1 (centres unmarked) [Compound 12-8] | 1000 to 3000 nM
N#Cc1ccc(C2=CCC(n3nnc(C(=O)NC4(c5cccnc5)CC4)c3C3CC3)CC2)cc1 (centres unmarked) [Compound 12-9] | 1000 to 3000 nM
Cc1cc(NC(=O)c2nnn(C3CCC(c4c(C)nn(C)c4C)CC3)c2C2CC2)ccn1 (centres unmarked) [Compound 13-1, 5-cyclopropyl-N-(2-methylpyridin-4-yl)-1-(4-(1,3,5-trimethyl-1H-pyrazol-4-yl)cyclohexyl)-1H-1,2,3-triazole-4-carboxamide] | 1000 to 3000 nM

Second part, the compound after the results:

IC50 | Compound
> 3000 nM | COc1ccccc1CCNC(=O)c1nnn(-c2ccc(-c3ccccc3)cc2)c1C1CC1 [Compound 14-1]
> 3000 nM | CC(C)(C)n1cc(NC(=O)c2nnn(-c3ccc(-c4ccccc4)cc3)c2C2CC2)cn1 [Compound 14-2]
> 3000 nM | CC(NC(=O)c1nnn(-c2ccc(-c3ccccc3)cc2)c1C1CC1)c1nccs1 (centres unmarked) [Compound 14-3]
> 3000 nM | Cc1nn(C(=O)c2nnn(-c3ccc(-c4ccccc4)cc3)c2C2CC2)c2cccc(N)c12 [Compound 14-4]
> 3000 nM | Cc1[nH]ncc1CNC(=O)c1nnn(-c2ccc(-c3ccccc3)cc2)c1C1CC1 [Compound 14-5]
> 3000 nM | O=C(NC1(c2ccccc2)CCC1)c1nnn(-c2ccc(-c3ccccc3)cc2)c1C1CC1 [Compound 14-6]
> 3000 nM | O=C(NCC1CCCO1)c1nnn(-c2ccc(-c3ccccc3)cc2)c1C1CC1 (centres unmarked) [Compound 14-7]
> 3000 nM | CC(NC(=O)c1nnn(-c2ccc(-c3ccccc3)cc2)c1C1CC1)c1cncnc1 (centres unmarked) [Compound 14-8]
> 3000 nM | O=C(NCCc1ncn[nH]1)c1nnn(-c2ccc(-c3ccccc3)cc2)c1C1CC1 [Compound 14-9]
> 3000 nM | Cn1ncc(NC(=O)c2nnn(-c3ccc(-c4ccccc4)cc3)c2C2CC2)c1Cl [Compound 14-10]
> 3000 nM | O=C(NCc1cscn1)c1nnn(-c2ccc(-c3ccccc3)cc2)c1C1CC1 [Compound 14-11]
> 3000 nM | CCn1nc(C)cc1NC(=O)c1nnn(-c2ccc(-c3ccccc3)cc2)c1C1CC1 [Compound 14-12]
> 3000 nM | Cc1nc(C(C)NC(=O)c2nnn(-c3ccc(-c4ccccc4)cc3)c2C2CC2)cs1 (centres unmarked) [Compound 14-13]
> 3000 nM | Cc1nn(C)c2ncnc(NC(=O)c3nnn(-c4ccc(-c5ccccc5)cc4)c3C3CC3)c12 [Compound 14-14]
100 to 500 nM | CCc1cc(NC(=O)c2nnn(-c3ccc(-c4ccccc4)cc3)c2C2CC2)ccn1 [Compound 14-15, 1-([1,1′-biphenyl]-4-yl)-5-cyclopropyl-N-(2-ethylpyridin-4-yl)-1H-1,2,3-triazole-4-carboxamide]
100 to 500 nM | CC(C)c1cc(NC(=O)c2nnn(-c3ccc(-c4ccccc4)cc3)c2C2CC2)ccn1 [Compound 14-16, 1-([1,1′-biphenyl]-4-yl)-5-cyclopropyl-N-(2-isopropylpyridin-4-yl)-1H-1,2,3-triazole-4-carboxamide]
100 to 500 nM | Cn1ncc2c1CN(C(=O)c1nnn(-c3ccc(-c4ccccc4)cc3)c1C1CC1)C2 [Compound 14-17]
100 to 500 nM | C#Cc1cc(NC(=O)c2nnn(-c3ccc(-c4ccccc4)cc3)c2C2CC2)ccn1 [Compound 14-18]
500 to 1000 nM | CS(=O)(=O)Nc1ccc(NC(=O)c2nnn(-c3ccc(-c4ccccc4)cc3)c2C2CC2)cc1 [Compound 14-19]
500 to 1000 nM | Cc1ccc(CNC(=O)c2nnn(-c3ccc(-c4ccccc4)cc3)c2C2CC2)cn1 [Compound 14-20]
500 to 1000 nM | Cc1csc(CNC(=O)c2nnn(-c3ccc(-c4ccccc4)cc3)c2C2CC2)n1 [Compound 14-21]
500 to 1000 nM | O=C(Nc1ccnc(C(F)F)c1)c1nnn(-c2ccc(-c3ccccc3)cc2)c1C1CC1 [Compound 14-22]
500 to 1000 nM | COc1cc(NC(=O)c2nnn(-c3ccc(-c4ccccc4)cc3)c2C2CC2)cc(C)n1 [Compound 14-23]

IC50 | Compound
500 to 1000 nM | O=C(Nc1cccc(-n2cncn2)c1)c1nnn(-c2ccc(-c3ccccc3)cc2)c1C1CC1 [Compound 14-24]
500 to 1000 nM | Cc1n[nH]c2ncnc(NC(=O)c3nnn(-c4ccc(-c5ccccc5)cc4)c3C3CC3)c12 [Compound 14-25]
500 to 1000 nM | N#Cc1cc(NC(=O)c2nnn(-c3ccc(-c4ccccc4)cc3)c2C2CC2)ccn1 [Compound 14-26]
500 to 1000 nM | CCn1cc(C(C)NC(=O)c2nnn(-c3ccc(-c4ccccc4)cc3)c2C2CC2)cn1 (centres unmarked) [Compound 14-27]
1000 to 3000 nM | C[C@H](NC(=O)c1nnn(-c2ccc(-c3ccccc3)cc2)c1C1CC1)c1ccc(Cl)cc1 [Compound 14-28]
1000 to 3000 nM | O=C(Nc1ccnc2[nH]ncc12)c1nnn(-c2ccc(-c3ccccc3)cc2)c1C1CC1 [Compound 14-29]
1000 to 3000 nM | O=C(NC1CCSCC1)c1nnn(-c2ccc(-c3ccccc3)cc2)c1C1CC1 [Compound 14-30]
1000 to 3000 nM | CCn1cc(CNC(=O)c2nnn(-c3ccc(-c4ccccc4)cc3)c2C2CC2)cn1 [Compound 14-31]
1000 to 3000 nM | CC(C)n1cc(CNC(=O)c2nnn(-c3ccc(-c4ccccc4)cc3)c2C2CC2)cn1 [Compound 14-32]
1000 to 3000 nM | CC(NC(=O)c1nnn(-c2ccc(-c3ccccc3)cc2)c1C1CC1)c1ccn(C)n1 (centres unmarked) [Compound 14-33]
1000 to 3000 nM | Cn1cc(CNC(=O)c2nnn(-c3ccc(-c4ccccc4)cc3)c2C2CC2)cn1 [Compound 14-34]
1000 to 3000 nM | O=C(NCc1cn[nH]c1)c1nnn(-c2ccc(-c3ccccc3)cc2)c1C1CC1 [Compound 14-36]
1000 to 3000 nM | CC[C@H](NC(=O)c1nnn(-c2ccc(-c3ccccc3)cc2)c1C1CC1)c1ccccc1 [Compound 14-37]
1000 to 3000 nM | Cn1ncc2c1CCCC2NC(=O)c1nnn(-c2ccc(-c3ccccc3)cc2)c1C1CC1 (centres unmarked) [Compound 14-38]
1000 to 3000 nM | Cc1c2c(NC(=O)c3nnn(-c4ccc(-c5ccccc5)cc4)c3C3CC3)nccc2nn1C [Compound 14-39]
1000 to 3000 nM | CO[C@H]1CC[C@H](NC(=O)c2nnn(-c3ccc(-c4ccccc4)cc3)c2C2CC2)CC1 [Compound 14-40]
1000 to 3000 nM | O=C(NCc1c[nH]cn1)c1nnn(-c2ccc(-c3ccccc3)cc2)c1C1CC1 [Compound 14-41]
1000 to 3000 nM | O=C(NCCc1c[nH]cn1)c1nnn(-c2ccc(-c3ccccc3)cc2)c1C1CC1 [Compound 14-42]
1000 to 3000 nM | CC(NC(=O)c1nnn(-c2ccc(-c3ccccc3)cc2)c1C1CC1)c1cnn(C(C)(C)C)c1 (centres unmarked) [Compound 14-43]
1000 to 3000 nM | CC1(C)COCCC1NC(=O)c1nnn(-c2ccc(-c3ccccc3)cc2)c1C1CC1 (centres unmarked) [Compound 14-44]
1000 to 3000 nM | CCn1cc(NC(=O)c2nnn(-c3ccc(-c4ccccc4)cc3)c2C2CC2)cn1 [Compound 14-45]
1000 to 3000 nM | O=C(NC1(c2cccnc2)CC1)c1nnn(-c2ccc(-c3ccccc3)cc2)c1C1CC1 [Compound 14-46]
